Structures are written as SMILES.

Usually IC50 stands for the concentration that gives 50% inhibition.

The conditions of series [1]: ref Anderson et al., 2011; cited from earlier work.
For a further series, the system named is Chk2. Conditions: ref Jobson et al., cited from earlier work.
The target in another series is T1, Chk1 (Homo sapiens, UniProt O14757).
T1 sequence (O14757 1-476): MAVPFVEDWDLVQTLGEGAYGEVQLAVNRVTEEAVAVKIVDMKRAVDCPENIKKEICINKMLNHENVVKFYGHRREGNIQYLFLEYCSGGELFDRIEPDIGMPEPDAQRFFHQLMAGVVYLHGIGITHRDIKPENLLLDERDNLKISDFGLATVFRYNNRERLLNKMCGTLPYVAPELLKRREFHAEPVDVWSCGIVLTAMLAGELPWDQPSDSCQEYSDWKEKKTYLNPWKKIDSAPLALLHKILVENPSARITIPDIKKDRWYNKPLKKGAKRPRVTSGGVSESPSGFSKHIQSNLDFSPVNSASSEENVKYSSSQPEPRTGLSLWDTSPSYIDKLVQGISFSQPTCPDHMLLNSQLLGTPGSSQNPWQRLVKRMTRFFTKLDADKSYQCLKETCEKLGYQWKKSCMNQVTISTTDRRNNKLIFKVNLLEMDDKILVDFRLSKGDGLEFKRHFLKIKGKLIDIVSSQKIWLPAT
Put plainly: IMAP fluorescence polarization kinase inhibition assay, Chk1. The note with it: for IC50: read-out: IC50 Chk1, IMAP assay, 60 minutes at room temperature. The format is biochemical. For orientation: Polarisation of emitted light reports the rotation of a fluorescent probe.

In a further series the target is recombinant human Chk2 (Homo sapiens, UniProt O96017). The experiment in a line: IMAP fluorescence polarization kinase inhibition assay, Chk2. The format is biochemical. The note with it: read-out: IC50 Chk2 Mean ±SD (n=3–4), 60 minutes at room temperature.
Chain of recombinant human Chk2 (O96017 whole entry): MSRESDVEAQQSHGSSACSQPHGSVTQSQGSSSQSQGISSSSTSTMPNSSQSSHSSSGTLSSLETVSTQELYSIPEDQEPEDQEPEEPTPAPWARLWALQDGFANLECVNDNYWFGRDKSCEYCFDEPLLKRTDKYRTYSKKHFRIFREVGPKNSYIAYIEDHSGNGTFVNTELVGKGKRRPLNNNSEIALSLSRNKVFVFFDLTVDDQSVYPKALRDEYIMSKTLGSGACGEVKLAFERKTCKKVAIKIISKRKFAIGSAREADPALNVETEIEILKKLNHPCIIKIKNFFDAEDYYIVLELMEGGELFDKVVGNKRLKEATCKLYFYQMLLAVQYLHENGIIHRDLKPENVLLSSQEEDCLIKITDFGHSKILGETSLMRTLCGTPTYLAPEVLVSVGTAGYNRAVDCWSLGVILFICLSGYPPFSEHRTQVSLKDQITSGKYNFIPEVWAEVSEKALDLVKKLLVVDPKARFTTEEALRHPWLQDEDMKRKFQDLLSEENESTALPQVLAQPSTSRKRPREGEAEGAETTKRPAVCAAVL
The next series deals with RSK2 (Homo sapiens, UniProt P51812). The experiment in a line: IMAP fluorescence polarization kinase inhibition assay, RSK2. The note with it: for IC50: read-out: IC50 RSK2, IMAP assay, 60 minutes at room temperature. In kind it is biochemical.
Chain of RSK2 (P51812 68-327 limits assumed): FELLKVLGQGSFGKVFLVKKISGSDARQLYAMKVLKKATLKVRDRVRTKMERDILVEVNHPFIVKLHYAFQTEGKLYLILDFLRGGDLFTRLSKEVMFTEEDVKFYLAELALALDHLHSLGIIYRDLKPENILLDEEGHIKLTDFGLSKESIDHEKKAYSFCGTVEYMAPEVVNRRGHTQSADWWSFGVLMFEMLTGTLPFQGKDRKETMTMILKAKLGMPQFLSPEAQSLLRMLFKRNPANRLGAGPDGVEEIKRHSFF
Where [2] appears, read: positive control on each screening plate.

For the compound `COc1cc2nc(-c3cc(F)ccc3O)nc(N[C@@H]3CNC[C@H]3C(C)(C)O)c2cc1OC` [CCT241533], the “Potentiation of cytotoxicity of PARP inhibitors” value in series [1] was “potentiate the cytotoxicity of PARP inhibitors”.

Consider `CC(=NNC(=N)N)c1ccc(NC(=O)Nc2ccc(C(C)=NNC(=N)N)cc2)cc1` [NSC 109555, 4,4'-Diacetyldiphenylurea-bis(guanylhydrazone)], for which, in the series on Chk2 (2007), the “Activity in cellular assays” value was “inactive”.

Take `OCC=CCO` [PV976]: the IC50 on Chk1 is over 100 µM; on recombinant human Chk2, 69.6 ± 40.2 nM; at RSK2 it was over 100 µM.

Turning to `CC(=NNC(=N)N)c1ccc(NC(=O)c2cc3cccc([N+](=O)[O-])c3[nH]2)cc1` [PV1019, 7-nitro-1H-indole-2-carboxylic acid {4-[1-(guanidinohydrazone)-ethyl]-phenyl}-amide], in the series on Chk2 (2009), the “Activity in cells against Chk2” value is recorded as “active”.

Take `C/C(=N\NC1=NCCN1)c1ccc(NC(=O)c2cc3cccc([N+](=O)[O-])c3[nH]2)cc1` [PV1115]: the IC50 on Chk1 was 66 µM; at RSK2 it was over 100 µM.

Turning to `N/C(=N/N=C/c1cccnc1)N[N+](=O)[O-]` [PV1531], the IC50 at Chk1 was 86 µM; at recombinant human Chk2, 0.03 ± 0.03 nM; at RSK2 it was over 100 µM.

`CN[C@@H]1C[C@H]2O[C@@](C)([C@@H]1OC)n1c3ccccc3c3c4c(c5c6ccccc6n2c5c31)C(=O)NC4` [staurosporine, reference compound]: on Chk1 (setting [2]), the “Inhibition of Chk1 (positive control)” value is “inhibits”. Besides, the “Inhibition of RSK2 (positive control)” value at RSK2 (setting [2]) is recorded as “inhibits”.

The values are drawn from publication PMC3210331 (Journal of structural biology, 2011).
